Drawing on ChEMBL document CHEMBL5463729, “Data for DCP probe BAY 1753011” (2023), this text covers inhibition for 2 compounds.

What is called inhibition is the relative decrease from the control value, in per cent.

The target in data set [1] is Growth hormone secretagogue receptor type 1 (Homo sapiens) (UniProt Q92847). The conditions noted are these: Compound concentration 10.0 uM.
In data set [2] the target is Cannabinoid receptor 1 (Homo sapiens) (UniProt P21554). The data set can be described thus: Inhibition of Cannabinoid CB1 at compound concentration of 10.0 uM in the Eurofins-Panlabs radioligand binding assay (Eurofins_assay_217050). Also on record: ligand concentration 2 nM. As to conditions: Compound concentration 10.0 uM; call rule not given here.
Sequence of Cannabinoid receptor 1 (Homo sapiens) (P21554 whole entry): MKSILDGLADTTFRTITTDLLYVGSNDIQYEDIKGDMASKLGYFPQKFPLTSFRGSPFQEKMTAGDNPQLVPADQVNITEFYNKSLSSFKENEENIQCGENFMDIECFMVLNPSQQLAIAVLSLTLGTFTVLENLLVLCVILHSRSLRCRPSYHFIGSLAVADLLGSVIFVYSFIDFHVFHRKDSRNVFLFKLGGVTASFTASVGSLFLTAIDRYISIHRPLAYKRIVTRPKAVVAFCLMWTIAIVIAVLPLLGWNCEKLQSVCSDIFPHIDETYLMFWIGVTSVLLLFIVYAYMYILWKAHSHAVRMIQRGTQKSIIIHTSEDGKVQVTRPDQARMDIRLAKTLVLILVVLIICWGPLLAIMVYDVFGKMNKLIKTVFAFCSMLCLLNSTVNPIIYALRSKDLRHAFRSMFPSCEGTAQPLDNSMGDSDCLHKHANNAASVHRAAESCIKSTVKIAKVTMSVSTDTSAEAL
Data set [3] deals with STE20/SPS1-related proline-alanine-rich protein kinase (Homo sapiens) (UniProt Q9UEW8). The data set can be described thus: Inhibition of STK39(h) at 10.0 µM in the Eurofins Kinase panel. As to conditions: Compound concentration 10.0 uM.
Data set [4] concerns the target Serine/threonine-protein kinase ICK (Homo sapiens) (UniProt Q9UPZ9). The data set can be described thus: Inhibition of ICK(h) at 10.0 µM in the Eurofins Kinase panel. As to conditions: Compound concentration 10.0 uM.
Data set [5] concerns the target Insulin-like growth factor 1 receptor (Homo sapiens) (UniProt P08069). The data set can be described thus: Inhibition of IGF-1R(h) at 10.0 µM in the Eurofins Kinase panel. The conditions noted are these: Compound concentration 10.0 uM.
Data set [6] addresses Tyrosine-protein kinase Lck (Homo sapiens) (UniProt P06239). The data set can be described thus: Inhibition of Lck(h) at 10.0 µM in the Eurofins Kinase panel. As to conditions: Compound concentration 10.0 uM.
Data set [7] addresses B1 bradykinin receptor (Homo sapiens) (UniProt P46663). As to conditions: Compound concentration 10.0 uM.
Data set [8] concerns the target C-C chemokine receptor type 2 (Homo sapiens) (UniProt P41597). The data set can be described thus: Inhibition of Chemokine CCR2B at 10 µM in the Eurofins-Panlabs radioligand binding assay (Eurofins_assay_217550). As to conditions: Compound concentration 10.0 uM.
The target of data set [9] is T1, Alpha-1A adrenergic receptor (Homo sapiens) (UniProt P35348).
T1 sequence (whole entry): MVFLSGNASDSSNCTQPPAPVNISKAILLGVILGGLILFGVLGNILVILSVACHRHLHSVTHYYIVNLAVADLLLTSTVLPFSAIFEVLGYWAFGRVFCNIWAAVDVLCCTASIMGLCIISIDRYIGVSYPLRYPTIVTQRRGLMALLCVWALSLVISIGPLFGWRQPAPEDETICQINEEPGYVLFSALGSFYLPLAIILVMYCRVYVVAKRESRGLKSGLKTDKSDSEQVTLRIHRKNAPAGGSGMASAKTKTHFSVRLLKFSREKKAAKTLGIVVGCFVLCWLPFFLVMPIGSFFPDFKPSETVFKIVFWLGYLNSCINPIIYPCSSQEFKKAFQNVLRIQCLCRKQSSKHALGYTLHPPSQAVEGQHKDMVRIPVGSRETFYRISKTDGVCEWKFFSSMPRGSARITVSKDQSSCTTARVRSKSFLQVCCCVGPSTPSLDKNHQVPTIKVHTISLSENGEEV
The conditions noted are these: Compound concentration 10.0 uM.

The target of data set [10] is Melatonin receptor type 1A (Homo sapiens) (UniProt P48039). The data set can be described thus: Inhibition of Melatonin MT1 at 10 µM in the Eurofins-Panlabs radioligand binding assay (Eurofins_assay_251600). As to conditions: Compound concentration 10.0 uM. Also on record: ligand concentration 0.05 nM.
Sequence of Melatonin receptor type 1A (Homo sapiens) (P48039 whole entry): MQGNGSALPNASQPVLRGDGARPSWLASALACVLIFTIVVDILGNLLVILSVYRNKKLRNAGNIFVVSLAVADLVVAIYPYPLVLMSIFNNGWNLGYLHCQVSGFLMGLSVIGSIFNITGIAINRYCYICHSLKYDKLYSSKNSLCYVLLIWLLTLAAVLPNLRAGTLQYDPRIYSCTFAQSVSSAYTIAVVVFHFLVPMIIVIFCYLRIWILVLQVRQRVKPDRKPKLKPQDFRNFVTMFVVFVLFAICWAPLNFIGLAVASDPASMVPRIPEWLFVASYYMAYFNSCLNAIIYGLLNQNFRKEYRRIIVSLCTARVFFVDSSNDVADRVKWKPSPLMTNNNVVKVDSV
For data set [11], the species on record is Mus musculus. The data set can be described thus: Inhibition of Interleukin IL-1 at 10 µM in the Eurofins-Panlabs radioligand binding assay (Eurofins_assay_243520). Also on record: ligand concentration 0.1 nM. As to conditions: Compound concentration 10.0 uM.
Data set [12] has as its target B1 bradykinin receptor (Homo sapiens) (UniProt P46663). The data set can be described thus: Inhibition of Bradykinin B1 at 10 µM in the Eurofins-Panlabs radioligand binding assay (Eurofins_assay_212510). As to conditions: Compound concentration 10.0 uM.
The target in data set [13] is Glutamate receptor ionotropic, kainate (Rattus norvegicus) (UniProt P22756+Q01812+P42260+P42264+Q63273). The data set can be described thus: Inhibition of Glutamate, Kainate at 10 µM in the Eurofins-Panlabs radioligand binding assay (Eurofins_assay_232700). The conditions noted are these: Compound concentration 10.0 uM.
Data set [14] deals with Vascular endothelial growth factor receptor 1 (Homo sapiens) (UniProt P17948). The data set can be described thus: Inhibition of Flt1(h) at 10.0 µM in the Eurofins Kinase panel. The conditions noted are these: Compound concentration 10.0 uM.
Sequence of Vascular endothelial growth factor receptor 1 (Homo sapiens) (P17948 whole entry): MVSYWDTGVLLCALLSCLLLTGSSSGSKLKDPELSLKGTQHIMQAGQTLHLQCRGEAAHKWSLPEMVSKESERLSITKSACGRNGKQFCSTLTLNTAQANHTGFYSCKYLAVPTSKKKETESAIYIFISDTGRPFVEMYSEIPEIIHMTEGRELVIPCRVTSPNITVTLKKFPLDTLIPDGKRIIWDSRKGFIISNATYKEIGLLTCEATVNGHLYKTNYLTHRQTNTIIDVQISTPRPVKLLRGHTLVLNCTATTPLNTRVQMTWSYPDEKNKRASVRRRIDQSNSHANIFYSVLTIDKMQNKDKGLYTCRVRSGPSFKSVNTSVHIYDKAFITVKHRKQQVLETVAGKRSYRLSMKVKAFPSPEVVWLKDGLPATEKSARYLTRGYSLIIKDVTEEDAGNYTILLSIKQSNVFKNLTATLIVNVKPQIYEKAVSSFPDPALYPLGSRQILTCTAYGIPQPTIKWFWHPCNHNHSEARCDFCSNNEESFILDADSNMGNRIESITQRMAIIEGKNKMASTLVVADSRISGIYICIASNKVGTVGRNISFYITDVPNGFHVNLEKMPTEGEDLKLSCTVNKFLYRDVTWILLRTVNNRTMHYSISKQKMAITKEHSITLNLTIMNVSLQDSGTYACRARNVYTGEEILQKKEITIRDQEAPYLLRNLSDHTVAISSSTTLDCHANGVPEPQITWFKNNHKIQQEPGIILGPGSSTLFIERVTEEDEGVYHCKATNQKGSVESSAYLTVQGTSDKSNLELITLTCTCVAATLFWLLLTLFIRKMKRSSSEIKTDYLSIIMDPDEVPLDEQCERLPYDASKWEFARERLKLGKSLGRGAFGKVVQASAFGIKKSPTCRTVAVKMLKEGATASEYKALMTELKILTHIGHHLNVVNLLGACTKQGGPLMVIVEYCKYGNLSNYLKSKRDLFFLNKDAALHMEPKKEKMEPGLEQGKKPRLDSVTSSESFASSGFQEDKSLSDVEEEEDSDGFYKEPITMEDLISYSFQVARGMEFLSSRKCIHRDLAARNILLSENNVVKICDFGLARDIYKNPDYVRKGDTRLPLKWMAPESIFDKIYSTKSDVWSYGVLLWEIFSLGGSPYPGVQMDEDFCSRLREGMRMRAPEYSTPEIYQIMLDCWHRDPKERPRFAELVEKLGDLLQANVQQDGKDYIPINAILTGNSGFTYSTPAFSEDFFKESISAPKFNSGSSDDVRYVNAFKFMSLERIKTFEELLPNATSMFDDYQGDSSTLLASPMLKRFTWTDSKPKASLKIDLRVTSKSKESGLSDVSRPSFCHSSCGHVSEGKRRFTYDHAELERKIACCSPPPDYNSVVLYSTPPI
Data set [15] deals with hERG (KCNH2) (Homo sapiens, UniProt Q12809). The data set can be described thus: Inhibition of Potassium Channel hERG at 10 µM in the Eurofins-Panlabs radioligand binding assay (Eurofins_assay_265900). The arrangement: ligand concentration 1.5 nM, non-specific ligand with concentration Astemizole, incubation time 60 min, incubation temperature 25 °C. The conditions noted are these: HEK-293 cells expressing human recombinant hERG, probe [3H] Astemizole, compound concentration 10 uM. Background: The hERG channel carries a current that helps repolarise heart muscle cells.

Data set [16] has as its target Tyrosine-protein kinase Lck (Homo sapiens) (UniProt P06239). The data set can be described thus: Inhibition of Protein Tyrosine Kinase, LCK at 10 µM in the Eurofins-Panlabs enzyme assay (Eurofins_assay_176020). As to conditions: Compound concentration 10.0 uM.
Data set [17] deals with Carbonic anhydrase 2 (Homo sapiens) (UniProt P00918). The data set can be described thus: Inhibition of Carbonic Anhydrase II at compound concentration of 10.0 uM in the Eurofins-Panlabs enzyme assay (Eurofins_assay_112020). The arrangement: substrate with concentration. The conditions noted are these: Compound concentration 10.0 uM.
For data set [18], the species on record is Sus scrofa. The data set can be described thus: Inhibition of ATPase, Na+/K+, Heart at compound concentration of 10.0 uM in the Eurofins-Panlabs enzyme assay (Eurofins_assay_107710). Also on record: substrate with concentration. As to conditions: Compound concentration 10.0 uM.
For data set [19], the target named is MAO-A (Homo sapiens, UniProt P21397). The data set can be described thus: Inhibition of Monoamine Oxidase MAO-A at compound concentration of 10.0 uM in the Eurofins-Panlabs enzyme assay (Eurofins_assay_140010). As to conditions: human recombinant MAO-A expressed in insect Hi5 cells, probe Kynuramine, compound concentration 10 uM. Also on record: substrate with concentration 50 uM Kynuramine, incubation time 60 min, incubation temperature 37 C.
Sequence of MAO-A (P21397 whole entry): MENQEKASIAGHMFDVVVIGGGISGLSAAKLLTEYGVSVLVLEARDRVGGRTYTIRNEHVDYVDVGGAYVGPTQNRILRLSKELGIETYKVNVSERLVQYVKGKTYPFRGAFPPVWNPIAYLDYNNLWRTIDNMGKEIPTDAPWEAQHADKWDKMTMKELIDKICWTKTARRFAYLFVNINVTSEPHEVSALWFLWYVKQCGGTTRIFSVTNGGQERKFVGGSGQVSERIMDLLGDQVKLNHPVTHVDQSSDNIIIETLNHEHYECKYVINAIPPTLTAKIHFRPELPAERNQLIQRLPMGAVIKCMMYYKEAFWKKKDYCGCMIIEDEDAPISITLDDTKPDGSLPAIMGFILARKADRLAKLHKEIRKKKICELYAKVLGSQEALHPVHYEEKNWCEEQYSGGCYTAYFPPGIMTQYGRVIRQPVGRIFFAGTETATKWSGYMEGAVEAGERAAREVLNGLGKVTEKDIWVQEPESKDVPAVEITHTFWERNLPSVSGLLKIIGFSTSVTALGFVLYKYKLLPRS

For data set [20], the target named is Tyrosine-protein kinase SYK (Homo sapiens) (UniProt P43405). The data set can be described thus: Inhibition of Syk(h) at 10.0 µM in the Eurofins Kinase panel. The conditions noted are these: Compound concentration 10.0 uM.
The target in data set [21] is Phosphodiesterase 3 (Homo sapiens) (UniProt Q14432+Q13370). The data set can be described thus: Inhibition of Phosphodiesterase PDE3 at compound concentration of 10.0 uM in the Eurofins-Panlabs enzyme assay (Eurofins_assay_152000). It counts as protein assay. The arrangement: substrate with concentration 1.01 uM [3H] cAMP + cAMP, incubation time 20 min, incubation temperature 25 C. The conditions noted are these: Compound concentration 10.0 uM.

The target in data set [22] is T2, Alpha-1D adrenergic receptor (Homo sapiens) (UniProt P25100).
T2 sequence (whole entry): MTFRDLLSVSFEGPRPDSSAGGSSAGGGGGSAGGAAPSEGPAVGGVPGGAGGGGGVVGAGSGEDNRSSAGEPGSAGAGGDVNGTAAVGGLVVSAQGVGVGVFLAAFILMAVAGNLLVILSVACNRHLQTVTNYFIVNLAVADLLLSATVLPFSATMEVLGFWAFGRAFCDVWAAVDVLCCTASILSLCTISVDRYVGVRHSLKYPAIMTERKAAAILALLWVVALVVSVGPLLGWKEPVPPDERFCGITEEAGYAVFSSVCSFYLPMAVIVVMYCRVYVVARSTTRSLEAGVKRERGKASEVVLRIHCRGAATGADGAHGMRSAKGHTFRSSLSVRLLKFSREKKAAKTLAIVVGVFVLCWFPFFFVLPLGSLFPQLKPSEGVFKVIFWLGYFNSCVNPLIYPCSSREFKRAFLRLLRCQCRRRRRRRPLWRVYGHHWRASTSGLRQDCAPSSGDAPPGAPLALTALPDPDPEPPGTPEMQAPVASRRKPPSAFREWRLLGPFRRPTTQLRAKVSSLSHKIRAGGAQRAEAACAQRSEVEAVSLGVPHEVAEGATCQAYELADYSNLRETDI
The data set can be described thus: Inhibition of Adrenergic alpha1D at 10 µM in the Eurofins-Panlabs radioligand binding assay (Eurofins_assay_203400). As to conditions: Compound concentration 10.0 uM.

In data set [23] the target is Mitogen-activated protein kinase 14 (Homo sapiens) (UniProt Q16539). The data set can be described thus: Inhibition of SAPK2a(h) at 10.0 µM in the Eurofins Kinase panel. The conditions noted are these: Compound concentration 10.0 uM.
Sequence of Mitogen-activated protein kinase 14 (Homo sapiens) (Q16539 whole entry): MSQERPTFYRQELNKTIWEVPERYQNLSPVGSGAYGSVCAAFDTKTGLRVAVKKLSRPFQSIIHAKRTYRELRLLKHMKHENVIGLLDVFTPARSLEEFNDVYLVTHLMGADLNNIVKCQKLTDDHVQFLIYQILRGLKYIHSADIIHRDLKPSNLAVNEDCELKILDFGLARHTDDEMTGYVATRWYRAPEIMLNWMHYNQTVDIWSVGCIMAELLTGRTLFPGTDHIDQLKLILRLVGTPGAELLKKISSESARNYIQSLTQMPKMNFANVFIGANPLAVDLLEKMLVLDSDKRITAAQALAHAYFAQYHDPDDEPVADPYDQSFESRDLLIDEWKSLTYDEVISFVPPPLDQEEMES
Data set [24] is filed under the species Rattus norvegicus. The data set can be described thus: Inhibition of Rolipram at 10 µM in the Eurofins-Panlabs radioligand binding assay (Eurofins_assay_268811). It counts as protein assay. Also on record: ligand concentration 1.8 nM. The conditions noted are these: Compound concentration 10.0 uM.

Sequence of Tyrosine-protein kinase Lck (Homo sapiens) (P06239 2-509 limits assumed): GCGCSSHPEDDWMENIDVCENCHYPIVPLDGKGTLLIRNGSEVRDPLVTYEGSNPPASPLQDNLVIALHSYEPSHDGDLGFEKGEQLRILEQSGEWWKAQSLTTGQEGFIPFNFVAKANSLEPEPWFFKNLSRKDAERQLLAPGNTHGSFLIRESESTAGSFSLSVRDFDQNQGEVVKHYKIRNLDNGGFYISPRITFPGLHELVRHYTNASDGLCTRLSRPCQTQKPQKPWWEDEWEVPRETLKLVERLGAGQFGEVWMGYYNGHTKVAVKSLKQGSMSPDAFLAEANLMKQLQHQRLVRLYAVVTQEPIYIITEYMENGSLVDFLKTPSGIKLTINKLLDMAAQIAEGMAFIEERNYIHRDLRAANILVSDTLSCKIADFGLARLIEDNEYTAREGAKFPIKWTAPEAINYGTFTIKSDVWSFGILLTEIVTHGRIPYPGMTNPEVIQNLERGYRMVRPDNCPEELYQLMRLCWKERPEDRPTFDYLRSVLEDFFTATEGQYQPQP
Sequence of B1 bradykinin receptor (Homo sapiens) (P46663 whole entry): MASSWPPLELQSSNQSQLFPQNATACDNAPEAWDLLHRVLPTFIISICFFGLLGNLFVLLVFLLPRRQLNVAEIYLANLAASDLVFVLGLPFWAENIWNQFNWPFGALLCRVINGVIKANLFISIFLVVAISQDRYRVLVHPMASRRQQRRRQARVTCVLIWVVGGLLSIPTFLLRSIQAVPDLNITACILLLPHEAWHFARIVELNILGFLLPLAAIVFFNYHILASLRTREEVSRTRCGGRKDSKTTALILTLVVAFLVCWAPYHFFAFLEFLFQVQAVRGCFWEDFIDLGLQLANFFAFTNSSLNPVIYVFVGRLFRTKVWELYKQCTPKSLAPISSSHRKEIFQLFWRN
Sequence of Serine/threonine-protein kinase ICK (Homo sapiens) (Q9UPZ9 whole entry): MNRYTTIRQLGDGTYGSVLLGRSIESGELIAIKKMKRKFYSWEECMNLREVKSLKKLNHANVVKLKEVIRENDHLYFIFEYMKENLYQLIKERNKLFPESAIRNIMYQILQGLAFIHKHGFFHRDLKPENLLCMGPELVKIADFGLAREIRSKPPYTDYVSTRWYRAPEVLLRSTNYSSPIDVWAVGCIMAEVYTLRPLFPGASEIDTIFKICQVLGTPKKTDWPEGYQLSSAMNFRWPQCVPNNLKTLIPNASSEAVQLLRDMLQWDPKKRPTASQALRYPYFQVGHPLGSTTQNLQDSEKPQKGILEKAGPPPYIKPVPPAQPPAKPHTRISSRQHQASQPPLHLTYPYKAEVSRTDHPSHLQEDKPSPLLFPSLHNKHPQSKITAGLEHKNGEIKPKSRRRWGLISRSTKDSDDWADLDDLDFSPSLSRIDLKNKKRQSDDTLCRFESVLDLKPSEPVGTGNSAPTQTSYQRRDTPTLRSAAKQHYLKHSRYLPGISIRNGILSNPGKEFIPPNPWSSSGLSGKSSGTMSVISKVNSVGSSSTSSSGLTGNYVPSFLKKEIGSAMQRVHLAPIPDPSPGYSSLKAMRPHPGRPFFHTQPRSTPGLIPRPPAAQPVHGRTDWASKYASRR
Sequence of C-C chemokine receptor type 2 (Homo sapiens) (P41597 whole entry, looked up): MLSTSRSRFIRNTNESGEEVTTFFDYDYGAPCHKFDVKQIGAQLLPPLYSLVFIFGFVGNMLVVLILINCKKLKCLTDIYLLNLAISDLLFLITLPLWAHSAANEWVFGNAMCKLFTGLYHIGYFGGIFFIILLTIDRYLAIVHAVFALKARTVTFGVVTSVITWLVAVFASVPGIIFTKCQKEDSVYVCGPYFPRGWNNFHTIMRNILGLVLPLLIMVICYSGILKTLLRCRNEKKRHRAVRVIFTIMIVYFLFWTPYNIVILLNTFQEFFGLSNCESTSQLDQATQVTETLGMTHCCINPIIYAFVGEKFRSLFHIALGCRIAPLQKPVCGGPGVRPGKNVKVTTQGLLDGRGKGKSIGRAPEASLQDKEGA

As to `O=c1n(Cc2cncn2-c2cccc(Cl)c2)nc(-c2ccc(Cl)cc2)n1C[C@H](O)C(F)(F)F`, the inhibition was 25% in [1]; 19% in [2]; -4.72% in data set [3]; -9.83% in data set [4]; -8.87% in [5]; -7.91% in data set [6]. The inhibition in data set [7] was -3%.
Turning to `C[C@H](O)c1nc(Cn2nc(-c3ccc(Cl)cc3)n(C[C@H](O)C(F)(F)F)c2=O)nn1-c1cccc(Cl)c1` [PECAVAPTAN], the inhibition in data set [8] is 2%; in data set [9], -2.04%; in data set [10], -6%; in [11], 15%; in data set [12], 0%; in [13], -4%. Further, the inhibition in [14] is -9.22%; in data set [16], -9%; in data set [17] it was -4%; in data set [18], 0%; in data set [20] it was -8.56%; in data set [21], 0%. Moreover, the inhibition in [22] was 1%; in [23], -8.61%; in [24] it was -2%. Further, the inhibition at 60 min, 10 µM in data set [15] and in data set [19] was -3% (not active) each time.
